US7109193B2, “Tricyclic diazepines tocolytic oxytocin receptor antagonists” (Wyeth, priority 2001, dated 2006)

Target: T1, human oxytocin receptor (Homo sapiens, UniProt P30559)
T1 construct: host or cells: CHO cells (pcDNA3.1 vector)
T1 sequence (P30559 1-389): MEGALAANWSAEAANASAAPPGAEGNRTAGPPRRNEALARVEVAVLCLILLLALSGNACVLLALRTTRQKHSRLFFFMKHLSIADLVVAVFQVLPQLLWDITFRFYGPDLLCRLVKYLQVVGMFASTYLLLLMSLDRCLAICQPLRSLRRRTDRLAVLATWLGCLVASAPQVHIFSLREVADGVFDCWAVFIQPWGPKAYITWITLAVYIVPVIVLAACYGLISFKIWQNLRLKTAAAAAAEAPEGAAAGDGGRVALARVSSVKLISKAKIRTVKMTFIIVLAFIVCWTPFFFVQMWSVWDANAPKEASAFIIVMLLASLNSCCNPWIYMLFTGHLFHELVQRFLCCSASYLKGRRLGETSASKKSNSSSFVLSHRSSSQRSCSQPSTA
Assay: Oxytocin binding in Chinese Hamster Ovary cell membranes expressing human oxytocin receptors
Settings: 100 nM, CHO cell membranes, [3H]oxytocin, values without parentheses, read-out: OT % inhibition @ 100% nM

| SMILES | inhibition at 0.1 µM [%] |
| --- | --- |
| COc1ccccc1-c1ccc(C(=O)N2Cc3ccc(C(=O)N[C@@H]4CN5CCC4CC5)n3Cc3ccccc32)cc1OC [Example 300, N-[(3S)-1-Azabicyclo[2.2.2]oct-3-yl]-10-[(2,2′-dimethoxy[1,1′-biphenyl]-4-yl)carbonyl]-10,11-dihydro-5H-pyrrolo[2,1-c][1,4]benzodiazepine-3-carboxamide] | 72 |
| COc1ccccc1-c1ccc(C(=O)N2Cc3ccc(C(=O)N[C@@H]4CN5CCC4CC5)n3Cc3ccccc32)cc1C [Example 295, N-[(3S)-1-Azabicyclo[2.2.2]oct-3-yl]-10-[(2′-methoxy-2-methyl[1,1′-biphenyl]-4-yl)carbonyl]-10,11-dihydro-5H-pyrrolo[2,1-c][1,4]benzodiazepine-3-carboxamide] | 79 |
| COc1cccc(-c2ccc(C(=O)N3Cc4ccc(C(=O)N5CCN(CCCN(C)C)CC5)n4Cc4ccccc43)cc2C)c1 [Example 248, {4-[3-(Dimethylamino)propyl]-1-piperazinyl}{10-[(3′-methoxy-2-methyl[1,1′-biphenyl]-4-yl)carbonyl]-10,11-dihydro-5H-pyrrolo[2,1-c][1,4]benzodiazepin-3-yl}methanone] | 77 |
| COc1cc(C(=O)N2Cc3ccc(C(=O)NCCC4CCCN4C)n3Cc3ccccc32)ccc1-n1c(C)ccc1C (centres unmarked) [Example 315, 10-[4-(2,5-Dimethyl-1H-pyrrol-1-yl)-3-methoxybenzoyl]-N-[2-(1-methyl-2-pyrrolidinyl)ethyl]-10,11-dihydro-5H-pyrrolo[2,1-c][1,4]benzodiazepine-3-carboxamide] | 10 |
| C=CCN1CCN(C(=O)c2ccc3n2Cc2ccccc2N(C(=O)c2ccc(-n4c(C)ccc4C)c(OC)c2)C3)CC1 [Example 318, (4-Allyl-1-piperazinyl){10-[4-(2,5-dimethyl-1H-pyrrol-1-yl)-3-methoxybenzoyl]-10,11-dihydro-5H-pyrrolo[2,1-c][1,4]benzodiazepin-3-yl}methanone] | 32 |
| COc1cc(C(=O)N2Cc3ccc(C(=O)N4CCN(C)CC4)n3Cc3ccccc32)ccc1-n1c(C)ccc1C [Example 306, {10-[4-(2,5-Dimethyl-1H-pyrrol-1-yl)-3-methoxybenzoyl]-10,11-dihydro-5H-pyrrolo[2,1-c][1,4]benzodiazepin-3-yl}(4-methyl-1-piperazinyl)methanone] | 34 |

The remaining lines, values ahead:

| inhibition at 0.1 µM [%] | SMILES |
| --- | --- |
| 66 | COc1ccccc1-c1ccc(C(=O)N2Cc3ccc(C(=O)N[C@@H](CCCCNC(=O)OC(C)(C)C)C(N)=O)n3Cc3ccccc32)cc1OC [Example 303, tert-Butyl (5S)-6-amino-5-[({10-[(2,2′-dimethoxy[1,1′-biphenyl]-4-yl)carbonyl]-10,11-dihydro-5H-pyrrolo[2,1-c][1,4]benzodiazepin-3-yl}carbonyl)amino]-6-oxohexylcarbamate] |
| 51 | O=C(c1ccc(-c2ccccc2)nc1)N1Cc2cccn2Cc2ccccc21 [Example 29, (6-Phenyl-pyridin-3-yl)-[10,11-dihydro-5H-pyrrolo[2,1-c][1,4]benzodiazepin-10-yl]methanone] |
| 97 | Cc1ccccc1-c1ccc(C(=O)N2Cc3ccc(C(=O)N4CCN(CCCN(C)C)CC4)n3Cc3ccccc32)cc1C [Example 247, {4-[3-(Dimethylamino)propyl]-1-piperazinyl}{10-[(2,2′-dimethyl[1,1′-biphenyl]-4-yl)carbonyl]-10,11-dihydro-5H-pyrrolo[2,1-c][1,4]benzodiazepin-3-yl}methanone] |
| 33 | CN(C)CCCN1CCN(C(=O)c2ccc3n2Cc2ccccc2N(C(=O)c2ccc(-c4cccc5ccccc45)cc2Cl)C3)CC1 [Example 256, {10-[2-Chloro-4-(1-naphthyl)benzoyl]-10,11-dihydro-5H-pyrrolo[2,1-c][1,4]benzodiazepin-3-yl}{4-[3-(dimethylamino)propyl]-1-piperazinyl}methanone] |
| 33 | Cc1cc(C(=O)N2Cc3cccn3Cc3ncccc32)ccc1-c1ccccc1C(F)(F)F [Example 323F, (2-Methyl-2′-trifluoromethyl-[1,1′-biphenyl]-4-yl)-(4H,10H-3a,5,9-triaza-benzo[f]azulen-9-yl)-methanone] |
